Measurements: ChEMBL document CHEMBL3407458, “Design and synthesis of pyrazole-oxindole conjugates targeting tubulin polymerization as new anticancer agents” (Eur J Med Chem, 2015)
The source made the active and inactive calls. The rule behind the calls is not given here.

Assays:
[1] = test system: HeLa; test: Cytotoxicity against human HeLa cells assessed as cell viability after 48 hrs by MTT assay; format: functional, cell-based
[2] = test system: A549; test: Cytotoxicity against human A549 cells assessed as cell viability after 48 hrs by MTT assay; format: functional, cell-based; settings: A549, 48 h
[3] = test system: MCF7; test: Cytotoxicity against human MCF7 cells assessed as cell viability after 48 hrs by MTT assay; format: functional, cell-based; settings: MCF7, 48 h
[4] = test system: DU-145; test: Cytotoxicity against human DU145 cells assessed as cell viability after 48 hrs by MTT assay; format: functional, cell-based; settings: DU-145, 48 h
[5] = target: Tubulin (Bos taurus) (UniProt Q6B856+Q862L2+Q862F3); test: Inhibition of bovine brain tubulin polymerization by fluorescence based tubulin polymerization assay
[6] = species: Danio rerio; test: Delay in development of wild type zebrafish embryo at 25 uM observed 28 hpf by stereomicroscopy; format: functional, organism-based
[7] = test system: HeLa; test: Antimitotic activity against human HeLa cells assessed as cells accumulation at G2/M phase at 5 uM after 24 hrs by Propidium iodide staining based FACS/flow cytometry (reference value: 17.68%); format: functional
[8] = test system: HeLa; test: Antimitotic activity against human HeLa cells assessed as cells accumulation at G2/M phase at 10 uM after 24 hrs by Propidium iodide staining based FACS/flow cytometry (reference value: 17.68%); format: functional
[9] = test system: HeLa; test: Antimicrotubule activity in human HeLa cells assessed as multipolar spindle fiber at 5 uM after 24 hrs; format: functional, cell-based
[10] = test system: HeLa; test: Antimicrotubule activity in human HeLa cells assessed as metaphase arrest at 5 uM after 24 hrs by immunohistochemistry; format: functional, cell-based

| SMILES | IC50 [1] [µM] | IC50 [2] [µM] | IC50 [3] [µM] | IC50 [4] [µM] | INH [5] [µM] | Activity [6] | Activity [7] [%] | Activity [8] [%] | Activity [9] | Activity [10] |
| --- | --- | --- | --- | --- | --- | --- | --- | --- | --- | --- |
| COc1ccc2c(c1)/C(=C/c1cc(-c3ccc(OC)c(OC)c3)n[nH]1)C(=O)N2 | 13 | 15 | 32 | 34 | 22.1 |  |  |  |  |  |
| COc1cc(-c2cc(/C=C3\C(=O)Nc4ccc([N+](=O)[O-])cc43)[nH]n2)cc(OC)c1OC | 30 | 22 | 16 | 20 | 15.3 |  |  |  |  |  |
| COC(=O)Nc1nc2cc(C(=O)c3cccs3)ccc2[nH]1 [NOCODAZOLE] | 1.1 | 0.89 | 1.7 | 3.2 | 2.2 | Active |  |  |  |  |
| O=C1Nc2ccc([N+](=O)[O-])cc2/C1=C/c1cc(-c2ccc3c(c2)OCO3)n[nH]1 | 24 | 37 | 17 | 36 | 14.7 |  |  |  |  |  |
| O=C1Nc2ccc(Cl)cc2/C1=C/c1cc(-c2ccc3c(c2)OCO3)n[nH]1 | 12 | 29 | 44 | 24 | 35.3 |  |  |  |  |  |
| O=C1Nc2ccc(F)cc2/C1=C/c1cc(-c2ccc3c(c2)OCO3)n[nH]1 | 32 | 26 | 36 | 21 | 24 |  |  |  |  |  |
| COc1ccc(-c2cc(/C=C3\C(=O)Nc4ccc(Cl)cc43)[nH]n2)cc1OC | 10 | 24 | 16 | 21 | 33.8 |  |  |  |  |  |
| COc1cc(-c2cc(/C=C3\C(=O)Nc4ccccc43)[nH]n2)cc(OC)c1OC | 21 | 21 | 27 | 35 | 18 |  |  |  |  |  |
| COc1ccc(-c2cc(/C=C3\C(=O)Nc4cc(Cl)ccc43)[nH]n2)cc1OC | 11 | 18 | 27 | 13.9 | 18.9 |  |  |  |  |  |
| COc1cc(-c2cc(/C=C3\C(=O)Nc4ccc(Cl)cc43)[nH]n2)cc(OC)c1OC | 12 | 27 | 44 | 21 | 25.3 |  |  |  |  |  |
| COc1ccc(-c2cc(/C=C3\C(=O)Nc4ccc(Cl)cc43)[nH]n2)cc1 | 5 | 6 | 9.3 | 4 | 8.1 | Active | 69.01 | 72.75 | Active |  |
| COc1ccc(-c2cc(/C=C3\C(=O)Nc4ccccc43)[nH]n2)cc1 | 18 | 14 | 15 | 21 | 38.9 | Active |  |  |  |  |
| COc1ccc(-c2cc(/C=C3\C(=O)Nc4ccc([N+](=O)[O-])cc43)[nH]n2)cc1 | 33 | 22 | 24 | 26 | 21 |  |  |  |  |  |
| COc1ccc(-c2cc(/C=C3\C(=O)Nc4ccc(OC)cc43)[nH]n2)cc1 | 7.1 | 8 | 6 | 9 | 9.2 |  | 60.19 | 60.38 |  | Active |
| COc1ccc(-c2cc(/C=C3\C(=O)Nc4ccc(F)cc43)[nH]n2)cc1 | 22 | 29 | 36 | 25 | 25 |  |  |  |  |  |
| COc1ccc2c(c1)/C(=C/c1cc(-c3ccc4c(c3)OCO4)n[nH]1)C(=O)N2 | 13.5 | 24 | 9.8 | 34 | 12 |  |  |  |  |  |
| O=C1Nc2cc(Cl)ccc2/C1=C/c1cc(-c2ccc3c(c2)OCO3)n[nH]1 | 7.3 | 27 | 18 | 24 | 14.5 |  |  |  |  |  |
| COc1ccc2c(c1)/C(=C/c1cc(-c3cc(OC)c(OC)c(OC)c3)n[nH]1)C(=O)N2 | 16 | 33 | 8.8 | 9.1 | 16 |  |  |  |  |  |
| COc1cc(-c2cc(/C=C3\C(=O)Nc4cc(Cl)ccc43)[nH]n2)cc(OC)c1OC | 11 | 33 | 22 | 27 | 22.4 |  |  |  |  |  |
| COc1ccc(-c2cc(/C=C3\C(=O)Nc4ccccc43)[nH]n2)cc1OC | 21 | 29 | 36 | 31 | 23 |  |  |  |  |  |
| COc1ccc(-c2cc(/C=C3\C(=O)Nc4cc(Cl)ccc43)[nH]n2)cc1 | 2.4 | 3 | 3.6 | 3 | 5.9 | Active | 71.2 | 77.6 | Active |  |
| COc1ccc(-c2cc(/C=C3\C(=O)Nc4ccc([N+](=O)[O-])cc43)[nH]n2)cc1OC | 36 | 42 | 42 | 28 | 18 |  |  |  |  |  |
